Test results reported in patent US12240859B2, “Turbinmicin compounds, compositions and uses thereof” (Wisconsin Alumni Research Foundation, priority 2019, dated 2025).
Values after ≈ are worked out from the molar mass of the structure shown. Like-named read-outs stand apart in the source and are kept apart here.

What was measured:
[1] = system: C. albicans; test: In vitro MIC susceptibility testing, broth microdilution; type: cell-based, Candida albicans; settings: Candida albicans
Procedure: (§1) In vitro MIC susceptibility testing. […]. Amphotericin B was used as a positive control and the MICs range were 0.25-1.5 μg/mL. Six untreated media controls were included on each plate. The plates were incubated at 33° C. for 72 h. The MICs were determined as the lowest concentration that inhibited visible growth. The MICs were read at 24, 48, and 72 hours, respectively. […]

[2] = system: C. glabrata; test: as above; type: cell-based, Candida glabrata
Procedure: as §1

[3] = system: C. albicans K1; test: Neutropenic murine disseminated candidiasis model, C. albicans K1; type: in vivo, Candida albicans; settings: mice
Source text: (§2) Animals. Six-week-old ICR Swiss specific-pathogen-free female mice weighing 23 to 27 g were used for all studies. Animals were maintained in accordance with the American Association for Accreditation of Laboratory Care criteria. Animal studies were approved by the University of Wisconsin Animal Research Committee.
C. auris B11211 and C. albicans K1 Infection model. A neutropenic, murine, disseminated candidiasis model was used for the treatment studies. Mice were rendered neutropenic (neutrophils, <100/mm^3) by injecting them with cyclophosphamide (Mead Johnson Pharmaceuticals, Evansville, IN) subcutaneously 4 days (150 mg/kg) and 1 day (100 mg/kg) before infection, and 2 days after infection (100 mg/kg). Previous studies have shown neutropenia (<100 mm^3) in this model for the 96-h study period.
(§3) Disseminated infection with C. auris B11211 infection was produced by injection of 0.1 ml of the inoculum via the lateral tail vein 2 h prior to the start of antifungal therapy. […] The results are expressed as the mean and standard deviation of the log10 CFU/kidney from three mice. […]
(§4) Results. A multi-dose experiment with C. auris B11211 infection murine model was evaluated, and four doses (1, 2, 4, and 8 mg/kg) of turbinmicin were administered to mice every six hours over a 24 h period; turbinmicin was administered by intraperitoneal route.

[4] = system: Lichteimia corymbiferea; test: In vitro MIC susceptibility testing; type: cell-based
Procedure: as §1

[5] = system: Aspergillus fumigatus; test: In vitro MIC susceptibility testing; type: cell-based
Procedure: as §1

[6] = system: Apophysomyces elegans; test: In vitro MIC susceptibility testing; type: cell-based
Procedure: as §1

[7] = system: Rhizopus delemar; test: In vitro MIC susceptibility testing; type: cell-based
Procedure: as §1

[8] = system: Scedosporium spp.; test: In vitro MIC susceptibility testing; type: cell-based
Procedure: as §1

[9] = system: Rhizopus oryzae; test: In vitro MIC susceptibility testing; type: cell-based; settings: Rhizopus arrhizus
Procedure: as §1

[10] = system: Cynninghamella bertholletiae; test: In vitro MIC susceptibility testing; type: cell-based
Procedure: as §1

[11] = system: Mucor circinelloides; test: In vitro MIC susceptibility testing; type: cell-based
Procedure: as §1

[12] = system: C. auris; test: Time kill experiments; type: cell-based, Candida auris; settings: C. auris (B11211, FIG. 6A), 1x to 16x MIC, 0-48 h
Procedure: FIGS. 6A-C show time-kill curves for turbinmicin against (6A) C. auris B11211, (6B) C. albicans K-1, and (6C) C. glabrata 4720.
Time Kill Experiments. Fresh Candida colonies from an overnight growth were added to normal saline and the turbidity was adjusted to a 0.6 transmittance at 530 nm to provide a standard suspension (1*10^6 CFU/mL). This suspension was diluted with RPMI 1640 medium buffered with MOPS and a standard compound stock solution to achieve a starting inoculum of approximately 10^5 CFU/ml. Each 20 mL culture (RPMI 1640 medium buffered with MOPS) was incubated at 35° C. with constant shaking, and 0.1 mL samples were withdrawn for the determination of fungal counts at 0, 2, 4, 6, 8, 24 and 48 h. Colony counts were determined by viable counts on sabouraud agar plate (SDA) after incubation for 48 h. Growth control for each organism were prepared without antifungal and run in parallel.

[13] = system: C. auris B11211; test: Neutropenic murine disseminated candidiasis model, C. auris B11211; type: in vivo, Candida auris; settings: mice
Source text: as §2
C. auris B11211 and C. albicans K1 Infection model. A neutropenic, murine, disseminated candidiasis model was used for the treatment studies. […]
C auris B11211 was subcultured on SDA 24 h prior to infection. […] Fungal counts of the inoculum determined by viable counts of C. auris on SDA were 6.25±0.03 log10 CFU ml^−1, respectively. […] Results were expressed as the mean number of CFU per kidney for three mice. […]
as §3, §4

C/C=C/C=C/C=C/C(=O)OC1C=CCC2C(=O)c3c(O)c4c5c(c3OC12)OCOC5CC1C(=O)c2cc(C)[nH]c(=O)c2C(=O)C41O (stereo not drawn) [Turbinmicin, turbinmicin]
MIC ([1]; strain 98-17): 0.25 µg/mL (≈ 0.398 µM) | MIC ([1]; strain 98-210): 0.25 µg/mL (≈ 0.398 µM) | MIC ([1]; strain 580): 0.5 µg/mL (≈ 0.797 µM) | MIC ([1]; strain K1 (K-1)): 0.25 µg/mL (≈ 0.398 µM) | MIC ([1]; strain SN250): 0.25 µg/mL (≈ 0.398 µM) | MIC ([2]; Nakaseomyces glabratus): 0.5 µg/mL (≈ 0.797 µM) | MIC ([2]; strain 513): 0.5 µg/mL (≈ 0.797 µM) | MIC ([2]; strain 729, Fks2_HS1_S663P): 0.5 µg/mL (≈ 0.797 µM) | MIC ([2]; strain 5592): 0.5 µg/mL (≈ 0.797 µM) | MIC ([2]; strain 14378, Fks1_HS1_S629P): 0.5 µg/mL (≈ 0.797 µM) | CFU/kidney reduction ([3]; multi-dose 1, 2, 4 and 8 mg/kg intraperitoneal over 24 hours): > 1 log 10 CFU/kidney | in vivo efficacy, single dose ([3]; single intraperitoneal dose 16, 32, 48 and 64 mg/kg, 6 h): showed in vivo efficacy | MIC [4]: 4 µg/mL (≈ 6.37 µM) | MIC ([5]; strain 293, read-out: MIC): 0.125 µg/mL (≈ 0.199 µM) | MIC ([5]; strain F11628 (11628), Cyp51 G138C, triazole resistant): 0.03 µg/mL (≈ 0.0478 µM) | MIC ([5]; strain F14403, Cyp51 G54R): 0.25 µg/mL (≈ 0.398 µM) | MIC ([5]; strain F14532, Cyp51 M220T): 0.25 µg/mL (≈ 0.398 µM) | MIC ([5]; strain F16216, Cyp51 L98H + TR): 0.25 µg/mL | MIC [6]: 4 µg/mL (≈ 6.37 µM) | MIC [7]: 4 µg/mL (≈ 6.37 µM) | MIC [8]: 0.5 µg/mL (≈ 0.797 µM) | MIC [9]: > 8 µg/mL | MIC [10]: > 8 µg/mL | MIC [11]: 4 µg/mL (≈ 6.37 µM) | time-kill activity [12]: Fungacidal activity was observed | CFU/kidney reduction ([13]; multi-dose 1, 2, 4 and 8 mg/kg intraperitoneal every six hours over 24 h, at 24 h, dose-dependent): > 3 log 10 CFU/kidney | antifungal effect, single dose ([13]; single intraperitoneal dose 8, 16, 32, 64 mg/kg, 6 h, data not shown): failed to reveal a significant antifungal effect
